The subject of data set [1] is primary hepatocytes isolated from rats. The experiment in a line: Hepatocyte-protecting effect: viability of isolated primary hepatocytes in culture (WST-1). To be noted: rat primary hepatocytes; treated at 1 or 10 μM; WST-1, optical density at 440 nm. Type of data set: cell-based. The method, then:
If cells are isolated from in vivo environment and their culture or preservation in vitro is begun, it would act as a stress to cells, and the apoptosis mechanism would begin to work. For preservation of organs or tissues, it is necessary to protect them from such a primary stress.
In order to verify this, primary hepatocytes isolated from rats were treated with the compounds of the working examples to observe how well the compounds can protect them from a primary stress. Primary hepatocytes were isolated using the Seglen PO method (Experimental Cell Research 74 (1972) pp. 450-454). Briefly, hepatocytes were isolated according to the two-step collagenase perfusion method and then centrifuged using percoll gradient (Kreamer BL etc., In Vitro Cellular & Developmental Biology 22 (1986) pp. 201-211) at low speed (500 rpm) for 10 minutes to remove dead cells. Viability of hepatocytes was maintained at 90% or more. Cells were suspended in HepatoZYME media (Gibco BRL) and counted. 1.5×10^4 cells of 100 μl were put into a 96-well plate (BD biocoat) coated with collagen and attached to the bottom for 3-4 hours. […] After 24, 72 or 144 hours, cell viability was measured to evaluate a hepatocyte-protecting effect.
Cell viability was measured by the optical density at 440 nm according to the WST-1 method (MK-400, Takeda). […]
In general terms: Tetrazolium assays rely on reduction of a dye to a coloured formazan, in cell work by metabolically active cells.

The subject of data set [2] is primary cultured hepatocytes. Briefly: Cell-protecting effect against cold shock in primary cultured hepatocytes (WST-1). The class given is cell-based. To be noted: Rattus norvegicus, Hepatocyte, 37° C. for 1 hour, 4° C. for 22 hours, then 37° C., cell viability by WST-1. The procedure:
In order to reproduce a condition for preservation prior to organ transplantation, primary cultured hepatocytes were prepared according to Experimental Example 1 and treated with the compounds of the working examples at 9 different concentrations that had been prepared by 3-fold serial dilution method using a starting concentration of 25 μM. The mixture was cultured at 37° C. for 1 hour, stored at 4° C. for 22 hours, and then transferred into an incubator at 37° C. and cultured therein. Cell viability was measured by the optical density at 440 nm according to the WST-1 method (MK-400, Takeda), and IC50 (unit: μM) was obtained using prism software (see Table 1).

Data set [3] deals with human embryonic lung cell line (LB-HEL). Briefly: Cell-protecting effect against cold shock in LB-HEL cells (WST-1). Type of data set: cell-based. To be noted: cold shock at 4° C. for 24 hours, then 37° C., cell viability by WST-1. The method, then: The same results as above were also obtained in other types of cells such as human embryonic lung cell line (LB-HEL) as well as hepatocytes (see FIG. 2 and Table 2). More specifically, LB-HEL cells were plated at 1.5×10^6 cells/well using DMEM medium (Gibco BRL) and treated with DMSO, nec-1, IM-54 or the compounds of Examples 126, 127, 137 and 138 at indicated concentrations. After storage at 4° C. for 24 hours, the mixture was transferred into an incubator at 37° C. and cultured therein. In order to verify recovery capacity at 37° C., cell viability after 24 hours post-transfer was measured by the optical density at 440 nm according to the WST-1 method (MK-400, Takeda) and compared with cell viability prior to cold shock (FIG. 2).

The subject of data set [4] is rat-isolated perfusion liver. The experiment in a line: Protecting effect against cold ischemia/warm reperfusion injury in rat-isolated perfusion liver model. To be noted: 30 μM in HTK solution, 24-hour cold preservation at 4° C. The procedure:
In order to verify an organ preservation effect, rat-isolated perfusion liver model was used to evaluate a protecting effect of the compounds of the working examples against cold preservation injury. A white rat was anesthetized by intraperitoneal injection of sodium pentobarbital (50 mg/kg) and administered with heparin (500 U/kg) by intravenous injection to prevent blood coagulation. After incising the abdominal median line, in order to measure bile output, polyethylene tube-10 was inserted into the bile duct, and the coronary vein was tied. Polyethylene tube-190 was inserted into the hepatic portal vein, and a perfusate, Krebs-Henseleit bicarbonate buffer (KHBB) (at pH 7.4 at 37° C.) was perfused at a rate of 4 mL/min/g. […] During the perfusion, a mixed gas (O2 95% and CO2 5%) was continuously injected to KHBB to supply oxygen. […]
In order to observe a protecting effect against ischemia and reperfusion injury, bile output and perfusate's LDH activity were measured. KHBB perfusate released from liver at 5, 10, 20, 30, 40, 50, 60, 70 and 80 minutes after reperfusion was collected, and LDH activity in the perfusate was measured using a biochemical automatic analyzer, Hitachi 7150 (FIG. 4). Bile secreted through the polyethylene tube which had been inserted into the bile duct at 0˜20, 20˜40, 40˜60 and 60˜80 minutes after reperfusion was collected, and bile output was measured (FIG. 5).

Consider `O=C(O)C[C@H]1CSC(c2cc3cc(Oc4ccccc4)cc(NC4CCCC4)c3[nH]2)=N1` [Example 21, [(S)-2-(7-cyclopentylamino-5-phenoxy-1H-indol-2-yl)-4,5-dihydro-thiazole-4-yl]-acetic acid], for which, in data set [1], the “viability after 144 hours, compared with viability after 24 hours” value is ≥ 80%. The half-inhibitory concentration (IC50) (in general, the concentration that inhibits the measured activity by half) in data set [2] was < 120 nM.

On to `C[C@H](NC(=O)C(=O)Nc1ccccc1C(C)(C)C)C(=O)N[C@@H](CC(=O)O)C(=O)COc1c(F)c(F)cc(F)c1F` [IDN6556, reference compound], for which, in data set [1], the “viability after 72 hours, compared with viability after 24 hours” value is reported as “about 50%”.

With `O=S1(=O)CCN(Cc2cc(NC3CCOCC3)c3[nH]c(-c4ccccc4)cc3c2)CC1` [Example 126, [5-(1,1-dioxo-thiomorpolin-4-ylmethyl)-2-phenyl-1H-indol-7-yl]-(tetrahydropyran-4-yl)-amine], the IC50 in data set [2] is 248 nM; in data set [3], < 100 nM. In addition, in data set [4] (80 minutes of reperfusion), the “total amount of bile output” value was determined as 0.070±0.006 ml/g liver. Besides, the inhibition (commonly the percentage by which the read-out fell short of the control) at 30 µM in data set [4] (Rattus norvegicus, until 50 minutes of reperfusion, read-out: inhibition of LDH activity in the perfusate, compared with the HTK group) is 50 to 70%.

Values taken from US8349885B2, “Indole and indazole derivatives having a cell-, tissue- and organ-preserving effect” (LG Life Sciences Ltd., priority 2008, dated 2013).
